Test results published in patent US10208019B2, “GLP-1 receptor agonists and uses thereof” (Pfizer Inc., priority 2016, dated 2019).

Target: human GLP-1R (Homo sapiens, UniProt P43220, G168S)
Assay: CHO GLP-1R Clone H6—Assay 1: HTRF cAMP cell-based functional agonist assay (high GLP-1R density)
Conditions: for EC50: read-out: Assay 1 EC50, CHO GLP-1R Clone H6, cAMP HTRF, geometric mean; for Emax: read-out: Assay 1 Emax (%), CHO GLP-1R Clone H6
[1] = relative to saturating concentration of full agonist GLP-1 (1 μM), arithmetic mean

Chain of human GLP-1R (P43220 24-463 G168S limits assumed): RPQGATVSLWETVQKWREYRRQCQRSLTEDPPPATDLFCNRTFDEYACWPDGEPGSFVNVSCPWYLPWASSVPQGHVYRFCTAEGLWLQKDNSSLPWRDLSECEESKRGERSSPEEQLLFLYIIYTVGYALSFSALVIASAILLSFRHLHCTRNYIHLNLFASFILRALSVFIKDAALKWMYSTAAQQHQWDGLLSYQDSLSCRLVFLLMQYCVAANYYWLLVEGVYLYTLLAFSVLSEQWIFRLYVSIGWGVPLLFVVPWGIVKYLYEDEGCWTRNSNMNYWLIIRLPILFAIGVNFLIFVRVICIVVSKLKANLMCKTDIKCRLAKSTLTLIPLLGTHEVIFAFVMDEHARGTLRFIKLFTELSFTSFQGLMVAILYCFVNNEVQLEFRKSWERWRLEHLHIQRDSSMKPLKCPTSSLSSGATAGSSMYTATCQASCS

SMILES	EC50 [nM]	Emax [1] [%]	Assay 1 Emax (%) (CHO GLP-1R Clone H6, relative to saturating concentration of full agonist GLP-1 (1 μM), arithmetic mean)
Cc1ccccc1COc1cccc(C2CCN(Cc3nc4ccc(C(=O)O)cc4n3C)CC2)n1 [Example 9A-11, 1-methyl-2-[(4-{6-[(2-methylbenzyl)oxy]pyridin-2-yl}piperidin-1-yl)methyl]-1H-benzimidazole-6-carboxylic acid]	1600	83	–
CN1CC(Cn2c(CN3CCC(c4cccc(OCc5ccc(Cl)cc5F)n4)CC3)nc3ccc(C(=O)O)cc32)C1 [Example 10A-19]	–	100	–
Cc1nnc(CCn2c(CN3CCC(c4cccc(OCc5ccc(Cl)cc5F)n4)CC3)nc3ccc(C(=O)O)cc32)o1 [Example 10A-28]	190	71	–
Cc1nnc(Cn2c(CN3CCC(c4cccc(OCc5ccc(Cl)cc5F)n4)CC3)nc3ccc(C(=O)O)cc32)o1 [Example 10A-29]	390	82	–
Cn1cnc(Cn2c(CN3CCC(c4cccc(OCc5ccc(Cl)cc5F)n4)CC3)nc3ccc(C(=O)O)cc32)c1 [Example 10A-30]	550	71	–
Cn1ccnc1Cn1c(CN2CCC(c3cccc(OCc4ccc(Cl)cc4F)n3)CC2)nc2ccc(C(=O)O)cc21 [Example 10A-38]	130	72	–
CC(C)n1c(CN2CCC(c3cccc(OCc4ccc(Cl)cc4F)n3)CC2)nc2ccc(C(=O)O)cc21 [Example 10A-40]	1200	–	53
CC(C)(C)n1cnnc1Cn1c(CN2CCC(c3cccc(OCc4ccc(Cl)cc4F)n3)CC2)nc2ccc(C(=O)O)cc21 [Example 10A-46]	1700	80	–
O=C(O)c1ccc2nc(CN3CCC(c4cccc(OCc5ccc(Cl)cc5F)n4)CC3)n(CCO)c2c1 [Example 10A-50]	290	64	–
CCc1nc(Cn2c(CN3CCC(c4cccc(OCc5ccc(Cl)cc5F)n4)CC3)nc3ccc(C(=O)O)cc32)no1 [Example 10A-51]	390	72	–
CCc1noc(Cn2c(CN3CCC(c4cccc(OCc5ccc(Cl)cc5F)n4)CC3)nc3ccc(C(=O)O)cc32)n1 [Example 10A-52]	1300	79	–
CC1(Cn2c(CN3CCC(c4cccc(OCc5ccc(Cl)cc5F)n4)CC3)nc3ccc(C(=O)O)cc32)CCO1 (stereo not shown) [Example 10A-53]	3.2	68	–
O=C(O)c1ccc2nc(CN3CCC(c4cccc(OCc5ccc(Cl)cc5F)n4)CC3)n(Cc3cnoc3)c2c1 [Example 10A-68]	140	76	–
O=C(O)c1ccc2nc(CN3CCC(c4cccc(OCc5ccc(Cl)cc5F)n4)CC3)n(Cc3ncon3)c2c1 [Example 10A-70]	5	65	–
CN1CCCC(Cn2c(CN3CCC(c4cccc(OCc5ccc(Cl)cc5F)n4)CC3)nc3ccc(C(=O)O)cc32)C1 (stereo not shown) [Example 11A-04, 2-[(4-{6-[(4-chloro-2-fluorobenzyl)oxy]pyridin-2-yl}piperidin-1-yl)methyl]-1-[(1-methylpiperidin-3-yl)methyl]-1H-benzimidazole-6-carboxylic acid]	> 19000	100	–
CN1CCC(CCn2c(CN3CCC(c4cccc(OCc5ccc(Cl)cc5F)n4)CC3)nc3ccc(C(=O)O)cc32)CC1 [Example 11A-07, 2-[(4-{6-[(4-chloro-2-fluorobenzyl)oxy]pyridin-2-yl}piperidin-1-yl)methyl]-1-[2-(1-methylpiperidin-4-yl)ethyl]-1H-benzimidazole-6-carboxylic acid]	> 20000	–	–
CN1CCC(Cn2c(CN3CCC(c4cccc(OCc5ccc(Cl)cc5F)n4)CC3)nc3ccc(C(=O)O)cc32)CC1 [Example 11A-08, 2-[(4-{6-[(4-chloro-2-fluorobenzyl)oxy]pyridin-2-yl}piperidin-1-yl)methyl]-1-[(1-methylpiperidin-4-yl)methyl]-1H-benzimidazole-6-carboxylic acid]	> 20000	–	–
CN1CCCCC1Cn1c(CN2CCC(c3cccc(OCc4ccc(Cl)cc4F)n3)CC2)nc2ccc(C(=O)O)cc21 (stereo not shown) [Example 11A-10, 2-[(4-{6-[(4-chloro-2-fluorobenzyl)oxy]pyridin-2-yl}piperidin-1-yl)methyl]-1-[(1-methylpiperidin-2-yl)methyl]-1H-benzimidazole-6-carboxylic acid]	> 20000	–	–
CN1CCOC(CCn2c(CN3CCC(c4cccc(OCc5ccc(Cl)cc5F)n4)CC3)nc3ccc(C(=O)O)cc32)C1 (stereo not shown) [Example 11A-11, 2-[(4-{6-[(4-chloro-2-fluorobenzyl)oxy]pyridin-2-yl}piperidin-1-yl)methyl]-1[2-(4-methylmorpholin-2-yl)ethyl]-1H-benzimidazole-6-carboxylic acid]	> 20000	–	–
COCCN1CCC(Cn2c(CN3CCC(c4cccc(OCc5ccc(Cl)cc5F)n4)CC3)nc3ccc(C(=O)O)cc32)CC1 [Example 11A-12, 2-[(4-{6-[(4-chloro-2-fluorobenzyl)oxy]pyridin-2-yl}piperidin-1-yl)methyl]-1-{[1-(2-methoxyethyl)piperidin-4-yl]methyl}-1H-benzimidazole-6-carboxylic acid]	> 20000	–	–

Next, values leading:

EC50 [nM]	Emax [1] [%]	Assay 1 Emax (%) (CHO GLP-1R Clone H6, relative to saturating concentration of full agonist GLP-1 (1 μM), arithmetic mean)	SMILES
4500	48	–	Cn1c(CN2CCC(c3cccc(OCc4ccccc4OC(F)(F)F)n3)CC2)nc2ccc(C(=O)O)cc21 [Example 9A-10, 1-methyl-2-{[4-(6-{[2-(trifluoromethoxy)benzyl]oxy}pyridin-2-yl)piperidin-1-yl]methyl}-1H-benzimidazole-6-carboxylic acid]
> 17000	100	–	Cn1c(CN2CCC(c3cccc(OCc4cccc(C#N)c4)n3)CC2)nc2ccc(C(=O)O)cc21 [Example 9A-12, 2-[(4-{6-[(3-cyanobenzyl)oxy]pyridin-2-yl}piperidin-1-yl)methyl]-1-methyl-1H-benzimidazole-6-carboxylic acid]
170	68	–	Cn1c(CN2CCC(c3cccc(OCc4ccc(C(F)(F)F)cc4)n3)CC2)nc2ccc(C(=O)O)cc21 [Example 9A-13, 1-methyl-2-{[4-(6-{[4-(trifluoromethyl)benzyl]oxy}pyridin-2-yl)piperidin-1-yl]methyl}-1H-benzimidazole-6-carboxylic acid]
1800	93	–	Cn1c(CN2CCC(c3cccc(OCc4cc(F)ccc4F)n3)CC2)nc2ccc(C(=O)O)cc21 [Example 9A-14, 2-[(4-{6-[(2,5-difluorobenzyl)oxy]pyridin-2-yl}piperidin-1-yl)methyl]-1-methyl-1H-benzimidazole-6-carboxylic acid]
75	69	–	CN(C)CCn1c(CN2CCC(c3cccc(OCc4ccc(Cl)cc4F)n3)CC2)nc2ccc(C(=O)O)cc21 [Example 10A-11]
170	69	–	CCn1c(CN2CCC(c3cccc(OCc4ccc(Cl)cc4F)n3)CC2)nc2ccc(C(=O)O)cc21 [Example 10A-39]
0.56	73	–	C[C@H]1CN(c2cccc(OCc3ccc(C#N)cc3)n2)CCN1Cc1nc2ccc(C(=O)O)cc2n1C[C@@H]1CCO1 [Example 10A-49, 2-{[(2S)-4-{6-[(4-cyanobenzyl)oxy]pyridin-2-yl}-2-methylpiperazin-1-yl]methyl}-1-[(2S)-oxetan-2-ylmethyl]-1H-benzimidazole-6-carboxylic acid]
3.4	79	–	O=C(O)c1ccc2nc(CN3CCC(c4cccc(OCc5ccc(Cl)cc5F)n4)CC3)n(C[C@H]3CCOC3)c2c1 [Example 10A-72, 2-[(4-{6-[(4-chloro-2-fluorobenzyl)oxy]pyridin-2-yl}piperidin-1-yl)methyl]-1-[(3R)-tetrahydrofuran-3-ylmethyl]-1H-benzimidazole-6-carboxylic acid]
33	80	–	CN1CCC1Cn1c(CN2CCC(c3cccc(OCc4ccc(Cl)cc4F)n3)CC2)nc2ccc(C(=O)O)cc21 (stereo not shown) [Example 10A-79]
> 10000	85	–	Cn1cnc(CCn2c(CN3CCC(c4cccc(OCc5ccc(Cl)cc5F)n4)CC3)nc3ccc(C(=O)O)cc32)c1 [Example 11A-01, 2-[(4-{6-[(4-chloro-2-fluorobenzyl)oxy]pyridin-2-yl}piperidin-1-yl)methyl]-1-[2-(1-methyl-1H-imidazol-4-yl)ethyl]-1H-benzimidazole-6-carboxylic acid]
> 15000	100	–	O=C(O)c1ccc2nc(CN3CCC(c4cccc(OCc5ccc(Cl)cc5F)n4)CC3)n(Cc3ccc(Cl)cn3)c2c1 [Example 11A-02, 2-[(4-{6-[(4-chloro-2-fluorobenzyl)oxy]pyridin-2-yl}piperidin-1-yl)methyl]-1-[(5-chloropyridin-2-yl)methyl]-1H-benzimidazole-6-carboxylic acid]
> 16000	100	–	CCN1CCC(Cn2c(CN3CCC(c4cccc(OCc5ccc(Cl)cc5F)n4)CC3)nc3ccc(C(=O)O)cc32)C1 (stereo not shown) [Example 11A-03, 2-[(4-{6-[(4-chloro-2-fluorobenzyl)oxy]pyridin-2-yl}piperidin-1-yl)methyl]-1-[(1-ethylpyrrolidin-3-yl)methyl]-1H-benzimidazole-6-carboxylic acid]
> 20000	–	–	O=C(O)c1ccc2nc(CN3CCC(c4cccc(OCc5ccc(Cl)cc5F)n4)CC3)n(CCC3CCCCO3)c2c1 (stereo not shown) [Example 11A-05, 2-[(4-{6-[(4-chloro-2-fluorobenzyl)oxy]pyridin-2-yl}piperidin-1-yl)methyl]-1-[2-(tetrahydro-2H-pyran-2-yl)ethyl]-1H-benzimidazole-6-carboxylic acid]
> 20000	–	–	CC(C)c1cc(Cn2c(CN3CCC(c4cccc(OCc5ccc(Cl)cc5F)n4)CC3)nc3ccc(C(=O)O)cc32)on1 [Example 11A-06, 2-[(4-{6-[(4-chloro-2-fluorobenzyl)oxy]pyridin-2-yl}piperidin-1-yl)methyl]-1-{[3-(propan-2-yl)-1,2-oxazol-5-yl]methyl}-1H-benzimidazole-6-carboxylic acid]
> 20000	–	–	CN1CCCC1CCn1c(CN2CCC(c3cccc(OCc4ccc(Cl)cc4F)n3)CC2)nc2ccc(C(=O)O)cc21 (stereo not shown) [Example 11A-09, 2-[(4-{6-[(4-chloro-2-fluorobenzyl)oxy]pyridin-2-yl}piperidin-1-yl)methyl]-1-[2-(1-methylpyrrolidin-2-yl)ethyl]-1H-benzimidazole-6-carboxylic acid]
